Laboratory results as given in patent US10334845B2, “Olfactory ligands” (University College Cardiff Consultants Limited, priority 2015, dated 2019).
Values joined by “and” are separate entries in the source; they are usually repeats but may differ in a detail not shown here. Identical values can stand only once.

Tests used:
[1] = system: grain aphids, Sitobion avenae; assay: Behavioural assay, four-arm olfactometer; assay type: in vivo; conditions: for Time spent in control arms (mean of 3) / Time spent in treatment arm: mean (SE), 16 min, 10 replicates; for Insect repellent / attractant activity (in words): summary statement
Description: The responses of individual grain aphids, Sitobion avenae, to test compounds were observed using a Perspex four-arm olfactometer (Pettersson, J.; Ent. Scand. 1, 63-73 (1970); Webster, B., et al. Animal Behav. 79, 451-457 (2010)), which was maintained at 23° C. and lit from above. A filter paper disc was laid in the bottom section of the olfactometer to provide traction for the aphid and the middle and top sections were fitted into place very tightly to give a good seal. The four arms, consisting of the barrels of disposable 10 mL syringes (Plastipak), were fitted tightly into the holes of the middle section, and filtered air was drawn through them and into the body of the olfactometer through a tube inserted into a hole in the centre of the top section and attached to a pump. The measured total flow rate was 200 mL/min and it was assumed that the flow rate through each arm was 50 mL/min. The three control arms each contained a filter paper strip to which had been applied 10 µL hexane which had been allowed to evaporate for 30 s. The treatment arm contained a filter paper strip to which the test compound in 10 μL of hexane (20-200 ng μL^−1) had been applied and left for 30 s for the hexane to evaporate. A single aphid was introduced through the central hole and the suction tube quickly reinserted. The time spent in each arm and in the central zone were recorded, using specialist software (OLFA, Udine, Italy), for the next 16 minutes. The olfactometer was rotated through 90° every 2 min to eliminate any directional bias. Each assay comprised 10 replicates and the mean time spent in treated and control arms were compared using a paired t-test (Genstat).
Data were recorded as mean (±SE) time spent in control (solvent only) or treatment arms and were analysed using Students T-test.

[2] = system: grain aphid (Sitobion avenae); conditions: background statement; cited from earlier work

Row | Compound | Time spent in control arms (mean of 3) ([1]; dose 1.0 μg) | Time spent in treatment arm ([1]; dose 1.0 μg) | Time spent in control arms (mean of 3) ([1]; dose 2.0 μg) | Time spent in treatment arm ([1]; dose 2.0 μg) | other results
1 | CC1CCCC(C)CCC(C(C)C)CC1 (stereo not shown) [IV, germacrane] | 2.45 (0.30) min | 2.04 (0.58) min | 2.39 (0.24) min | 2.38 (0.50) min | 
2 | C=C1/C=C/[C@@H](C(C)C)CC/C(C)=C/CC1 [III, (R)-germacrene D] | 2.57 (0.19) min | 3.15 (0.53) min | 1.86 (0.29) min | 2.65 (0.52) min | 
3 | C=C1/C=C/[C@H](C(C)C)CC/C(C)=C/CC1 [Comparator Compound Ia, (S)-germacrene D] |  | 1.63 (0.35) min | 2.29 (0.41) min | 0.50 (0.14) min | Time spent in control arms (mean of 3) ([1]; dose 0.2 μg): 2.31 (0.26) min; Time spent in treatment arm ([1]; dose 0.2 μg): 1.14 (0.25) min
4 | C=C1C=C[C@H](C(C)CC)CCC(C)=CCC1 (stereo partly drawn) [Comparator Compound Ib, (S)-12-methylgermacrene D] |  |  |  |  | Time spent in control arms (mean of 3) ([1]; dose 0.9 μg): 2.21 (0.42) min; Time spent in treatment arm ([1]; dose 0.9 μg): 1.20 (0.24) min; Time spent in control arms (mean of 3) ([1]; dose 1.2 μg): 2.66 (0.17) min; Time spent in treatment arm ([1]; dose 1.2 μg): 2.13 (0.25) min
5 | CC=C1C=C[C@H](C(C)C)CCC(C)=CCC1 [Compound If, (S)-15-methylgermacrene D] | 2.52 (0.23) min | 1.92 (0.31) min |  |  | Time spent in control arms (mean of 3) ([1]; dose 0.8 μg): 2.61 (0.26) min; Time spent in treatment arm ([1]; dose 0.8 μg): 1.38 (0.38) min; Insect repellent / attractant activity (in words) [1]: much greater insect repellent activity
6 | C=C1/C=C/[C@H](C(C)C)CC/C(C)=C/CC1 [Germacrene D] |  |  |  |  | Insect repellent activity (in words) [2]: repel insects
7 | C=C1C=C[C@H](C(C)C)CCC(CC)=CCC1 [Comparator Compound Ic, (S)-14-methylgermacrene D] | 2.61 (0.28) min | 3.27 (0.68) min | 2.01 (0.23) min | 1.65 (0.39) min | Time spent in control arms (mean of 3) ([1]; dose 0.2 μg): 2.21 (0.27) min; Time spent in treatment arm ([1]; dose 0.2 μg): 2.41 (0.73) min
8 | C=C1C=C[C@H](C(C)C)CCC(C)=C(F)CC1 [Comparator Compound Ih, (S)-1-fluorogermacrene D] | 2.54 (0.27) min | 2.62 (0.50) min | 2.60 (0.26) min | 2.46 (0.39) min | 
9 | CC=C1C=C[C@H](C(C)C)CCC(CC)=CCC1 [Compound Ig, (S)-14,15-dimethylgermacrene D] | 2.27 (0.11) min and 2.39 (0.20) min | 2.77 (0.31) min and 2.97 (0.40) min |  |  | Time spent in control arms (mean of 3) ([1]; dose 0.8 μg): 2.60 (0.22) min; Time spent in treatment arm ([1]; dose 0.8 μg): 3.38 (0.38) min; Time spent in control arms (mean of 3) ([1]; dose 1.2 μg): 1.96 (0.21) min; Time spent in treatment arm ([1]; dose 1.2 μg): 2.92 (0.23) min; Insect repellent / attractant activity (in words) [1]: strong insect attractant properties
